Consider three molecules from patent publication US20240246942A1, “KINASE INHIBITORS FOR THE TREATMENT OF NEURODEGENERATIVE DISEASES” (priority 2020, published 2024).

The structures appear in SMILES notation.

What all share (assay): biochemical
The target of experiment [1] is T1, panel of 374 wild-type kinases (Homo sapiens, UniProt Q9UEE5).
T1 construct: purchased Reaction Biology Corporation
T1 sequence (Q9UEE5 1-414): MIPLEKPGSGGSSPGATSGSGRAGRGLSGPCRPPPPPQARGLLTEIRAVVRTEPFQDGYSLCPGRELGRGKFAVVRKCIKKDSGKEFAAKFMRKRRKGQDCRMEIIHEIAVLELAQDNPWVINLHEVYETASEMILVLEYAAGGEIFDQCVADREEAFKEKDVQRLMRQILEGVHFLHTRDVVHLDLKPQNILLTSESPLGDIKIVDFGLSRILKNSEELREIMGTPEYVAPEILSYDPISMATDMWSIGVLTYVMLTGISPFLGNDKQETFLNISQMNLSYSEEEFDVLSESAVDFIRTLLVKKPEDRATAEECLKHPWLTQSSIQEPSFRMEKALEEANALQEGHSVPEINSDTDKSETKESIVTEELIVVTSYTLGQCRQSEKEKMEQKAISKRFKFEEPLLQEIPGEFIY
The conditions noted are these: read-out: % Enzyme Activity (relative to DMSO controls), DRAK1/STK17A.

The target in experiment [2] is T2, panel of 374 wild-type kinases (Homo sapiens, UniProt P46734).
T2 construct: purchased Reaction Biology Corporation
T2 sequence (P46734 1-347): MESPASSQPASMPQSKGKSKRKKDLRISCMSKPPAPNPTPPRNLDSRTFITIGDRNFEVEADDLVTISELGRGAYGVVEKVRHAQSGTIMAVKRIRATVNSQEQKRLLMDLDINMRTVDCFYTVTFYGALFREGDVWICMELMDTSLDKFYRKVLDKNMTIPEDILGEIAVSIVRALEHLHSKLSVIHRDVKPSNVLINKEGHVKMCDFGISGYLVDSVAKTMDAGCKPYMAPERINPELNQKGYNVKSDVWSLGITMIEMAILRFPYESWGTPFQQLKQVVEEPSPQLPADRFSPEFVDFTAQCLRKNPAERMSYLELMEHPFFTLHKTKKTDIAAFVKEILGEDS
The conditions noted are these: read-out: % Enzyme Activity (relative to DMSO controls), MEK3.

Experiment [3] has as its target T3, panel of 374 wild-type kinases (Homo sapiens, UniProt P31749).
T3 construct: purchased Reaction Biology Corporation
The following applies: read-out: % Enzyme Activity (relative to DMSO controls), AKT1.

Experiment [4] deals with T4, panel of 374 wild-type kinases (Homo sapiens, UniProt Q16566).
T4 construct: purchased Reaction Biology Corporation
The conditions noted are these: read-out: % Enzyme Activity (relative to DMSO controls), CAMK4.

For experiment [5], the target named is T5, panel of 374 wild-type kinases (Homo sapiens, UniProt P22612).
T5 construct: purchased Reaction Biology Corporation
The following applies: read-out: % Enzyme Activity (relative to DMSO controls), kinase PKAcg.

Experiment [6] concerns the target T6, panel of 374 wild-type kinases (Homo sapiens, UniProt Q15303).
T6 construct: purchased Reaction Biology Corporation
The following applies: read-out: % Enzyme Activity (relative to DMSO controls), ERBB4/HER4.

In experiment [7] the target is T7, panel of 374 wild-type kinases (Homo sapiens, UniProt P10398).
T7 construct: purchased Reaction Biology Corporation
T7 sequence (P10398 1-606): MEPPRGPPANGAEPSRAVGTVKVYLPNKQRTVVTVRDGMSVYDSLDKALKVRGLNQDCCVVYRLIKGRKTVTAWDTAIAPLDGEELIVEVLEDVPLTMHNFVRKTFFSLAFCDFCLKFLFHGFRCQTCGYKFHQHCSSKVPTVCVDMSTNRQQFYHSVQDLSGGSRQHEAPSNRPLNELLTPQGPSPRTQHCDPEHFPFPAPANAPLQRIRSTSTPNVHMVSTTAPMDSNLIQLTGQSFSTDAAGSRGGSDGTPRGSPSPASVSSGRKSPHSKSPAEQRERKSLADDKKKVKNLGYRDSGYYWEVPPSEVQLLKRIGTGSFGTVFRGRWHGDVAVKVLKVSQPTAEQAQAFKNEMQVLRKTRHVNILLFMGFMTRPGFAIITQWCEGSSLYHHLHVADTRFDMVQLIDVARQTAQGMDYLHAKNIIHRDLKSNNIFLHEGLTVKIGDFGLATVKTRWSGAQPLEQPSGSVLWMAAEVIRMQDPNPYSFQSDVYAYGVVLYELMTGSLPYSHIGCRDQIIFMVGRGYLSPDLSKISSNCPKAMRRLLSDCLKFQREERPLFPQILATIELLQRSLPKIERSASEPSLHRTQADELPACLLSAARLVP
The conditions noted are these: read-out: % Enzyme Activity (relative to DMSO controls), ARAF.

The target of experiment [8] is T8, panel of 374 wild-type kinases (Homo sapiens, UniProt Q8TDC3).
T8 construct: purchased Reaction Biology Corporation
T8 sequence (Q8TDC3 1-778): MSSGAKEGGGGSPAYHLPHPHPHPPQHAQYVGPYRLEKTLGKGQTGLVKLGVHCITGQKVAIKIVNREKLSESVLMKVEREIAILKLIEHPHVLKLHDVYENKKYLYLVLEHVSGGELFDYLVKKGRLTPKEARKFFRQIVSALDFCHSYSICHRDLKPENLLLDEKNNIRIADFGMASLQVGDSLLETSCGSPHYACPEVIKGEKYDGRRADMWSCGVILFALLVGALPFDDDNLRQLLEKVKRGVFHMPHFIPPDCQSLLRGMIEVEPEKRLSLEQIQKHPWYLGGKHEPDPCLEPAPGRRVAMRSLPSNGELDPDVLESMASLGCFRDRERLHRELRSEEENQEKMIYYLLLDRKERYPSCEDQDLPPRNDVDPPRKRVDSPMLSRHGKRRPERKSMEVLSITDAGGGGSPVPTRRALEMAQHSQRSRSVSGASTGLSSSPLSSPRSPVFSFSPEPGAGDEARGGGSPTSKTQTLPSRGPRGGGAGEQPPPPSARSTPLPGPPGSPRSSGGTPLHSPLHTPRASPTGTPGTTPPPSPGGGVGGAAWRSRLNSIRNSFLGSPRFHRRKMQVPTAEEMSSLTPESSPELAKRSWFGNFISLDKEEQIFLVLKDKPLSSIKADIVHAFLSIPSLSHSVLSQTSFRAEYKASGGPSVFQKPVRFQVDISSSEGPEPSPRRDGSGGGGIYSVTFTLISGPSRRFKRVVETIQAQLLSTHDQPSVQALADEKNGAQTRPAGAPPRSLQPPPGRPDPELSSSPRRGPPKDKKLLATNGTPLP
The following applies: read-out: % Enzyme Activity (relative to DMSO controls), BRSK1.

Experiment [9] deals with T9, panel of 374 wild-type kinases (Homo sapiens, UniProt P43405).
T9 construct: purchased Reaction Biology Corporation
The following applies: read-out: % Enzyme Activity (relative to DMSO controls), kinase SYK.

T6 sequence (Q15303 26-1308): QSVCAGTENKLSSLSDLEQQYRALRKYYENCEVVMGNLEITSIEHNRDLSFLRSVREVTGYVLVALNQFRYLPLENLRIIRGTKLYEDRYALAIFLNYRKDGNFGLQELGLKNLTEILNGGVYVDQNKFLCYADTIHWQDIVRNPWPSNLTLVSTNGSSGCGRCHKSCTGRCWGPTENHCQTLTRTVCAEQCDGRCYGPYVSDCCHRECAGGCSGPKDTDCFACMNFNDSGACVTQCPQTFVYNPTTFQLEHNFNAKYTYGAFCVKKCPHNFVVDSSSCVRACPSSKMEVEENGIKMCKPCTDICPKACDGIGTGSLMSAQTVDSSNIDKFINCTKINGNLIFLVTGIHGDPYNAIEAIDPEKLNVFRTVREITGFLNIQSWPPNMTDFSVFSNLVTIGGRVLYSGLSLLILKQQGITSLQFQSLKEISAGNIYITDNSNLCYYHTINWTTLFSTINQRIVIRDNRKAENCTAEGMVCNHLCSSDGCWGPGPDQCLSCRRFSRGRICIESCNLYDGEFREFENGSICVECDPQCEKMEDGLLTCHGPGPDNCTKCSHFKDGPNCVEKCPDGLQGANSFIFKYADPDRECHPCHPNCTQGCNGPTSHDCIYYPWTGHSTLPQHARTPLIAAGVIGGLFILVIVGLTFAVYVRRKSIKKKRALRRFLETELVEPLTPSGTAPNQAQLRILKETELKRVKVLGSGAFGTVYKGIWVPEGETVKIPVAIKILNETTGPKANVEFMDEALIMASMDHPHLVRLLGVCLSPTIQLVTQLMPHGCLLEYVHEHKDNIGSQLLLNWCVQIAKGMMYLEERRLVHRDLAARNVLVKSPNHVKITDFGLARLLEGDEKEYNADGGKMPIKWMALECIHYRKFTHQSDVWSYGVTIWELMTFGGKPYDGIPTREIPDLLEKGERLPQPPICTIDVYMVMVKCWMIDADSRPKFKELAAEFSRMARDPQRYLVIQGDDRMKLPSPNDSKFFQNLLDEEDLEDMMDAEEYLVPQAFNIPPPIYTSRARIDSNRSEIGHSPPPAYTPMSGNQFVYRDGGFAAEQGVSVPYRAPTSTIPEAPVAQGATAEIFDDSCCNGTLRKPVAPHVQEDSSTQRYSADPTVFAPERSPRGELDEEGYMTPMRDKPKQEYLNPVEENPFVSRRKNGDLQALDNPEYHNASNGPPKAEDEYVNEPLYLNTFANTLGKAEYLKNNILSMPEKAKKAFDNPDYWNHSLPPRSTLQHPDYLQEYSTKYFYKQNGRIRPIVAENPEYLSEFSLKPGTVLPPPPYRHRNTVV
T5 sequence (P22612 whole entry): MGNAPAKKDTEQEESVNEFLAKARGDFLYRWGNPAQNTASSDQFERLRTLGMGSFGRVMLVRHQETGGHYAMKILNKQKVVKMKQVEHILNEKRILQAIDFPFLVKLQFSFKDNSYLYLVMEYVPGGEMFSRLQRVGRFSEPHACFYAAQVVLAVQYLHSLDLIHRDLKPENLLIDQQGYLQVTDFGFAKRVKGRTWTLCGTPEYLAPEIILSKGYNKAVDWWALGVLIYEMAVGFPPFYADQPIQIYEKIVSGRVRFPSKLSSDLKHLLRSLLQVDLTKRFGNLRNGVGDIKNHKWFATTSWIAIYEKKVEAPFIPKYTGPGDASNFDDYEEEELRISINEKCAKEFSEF
T4 sequence (Q16566 whole entry): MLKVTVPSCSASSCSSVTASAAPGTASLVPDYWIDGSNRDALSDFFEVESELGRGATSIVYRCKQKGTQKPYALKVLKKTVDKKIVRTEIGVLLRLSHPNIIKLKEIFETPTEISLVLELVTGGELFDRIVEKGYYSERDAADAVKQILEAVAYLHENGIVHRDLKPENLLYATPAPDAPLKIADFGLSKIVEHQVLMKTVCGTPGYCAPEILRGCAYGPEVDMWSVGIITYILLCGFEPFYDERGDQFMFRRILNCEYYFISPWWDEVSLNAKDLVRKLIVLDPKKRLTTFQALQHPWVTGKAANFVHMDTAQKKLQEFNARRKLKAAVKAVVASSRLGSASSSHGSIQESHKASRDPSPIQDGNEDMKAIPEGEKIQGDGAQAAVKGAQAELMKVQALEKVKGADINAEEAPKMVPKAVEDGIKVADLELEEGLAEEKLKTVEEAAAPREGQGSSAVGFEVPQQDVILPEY
T3 sequence (P31749 whole entry): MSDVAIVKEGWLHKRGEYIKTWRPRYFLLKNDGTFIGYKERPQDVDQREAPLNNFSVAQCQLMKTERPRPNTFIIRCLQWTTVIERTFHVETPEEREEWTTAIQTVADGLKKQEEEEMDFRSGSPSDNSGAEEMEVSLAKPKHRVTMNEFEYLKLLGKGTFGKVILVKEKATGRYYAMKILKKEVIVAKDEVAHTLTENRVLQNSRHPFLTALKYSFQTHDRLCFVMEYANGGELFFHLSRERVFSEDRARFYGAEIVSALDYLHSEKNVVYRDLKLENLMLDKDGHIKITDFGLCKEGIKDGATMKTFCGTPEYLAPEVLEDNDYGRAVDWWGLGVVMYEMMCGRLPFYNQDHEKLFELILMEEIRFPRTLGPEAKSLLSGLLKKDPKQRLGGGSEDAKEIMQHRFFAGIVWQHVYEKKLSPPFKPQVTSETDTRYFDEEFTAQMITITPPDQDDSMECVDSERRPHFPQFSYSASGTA

On to `O=C(Nc1cnn(-c2csc(C(=O)NC3COC3)c2)c1)Nc1ccccc1Cl` [Compound 17, 4-(4-(3-(2-chlorophenyl)ureido)-1H-pyrazol-1-yl)-N-(oxetan-3-yl)thiophene-2-carboxamide], for which the remaining activity at 5 µM in [1] is 98.4%; in [2] it was 104%; in [3] it was 95.4%; in experiment [4], 114%; in [5] it was 104%; in [6], 105%. The values for the remaining activity at 5 µM in experiment [7], in experiment [8] and in experiment [9] were 95.1%, 85.5% and 104%, respectively.

`O=C(Nc1cnn(-c2csc(C(=O)NC3COC3)c2)c1)Nc1c(F)cccc1Cl` [Compound 25, 4-(4-(3-(2-chloro-6-fluorophenyl)ureido)-1H-pyrazol-1-yl)-N-(oxetan-3-yl)thiophene-2-carboxamide]: the remaining activity at 5 µM in experiment [1] was determined as 89.4%; in [2] it was 111%; in experiment [3] it was 105%; in [4] it was 98.7%; in [5] it was 97.6%; in [6], 102%. Further, the values for the remaining activity at 5 µM in [7], in experiment [8] and in experiment [9] were 94.4%, 99.4% and 90.3%, respectively.

Consider `Cc1sc(C(=O)NC2COC2)cc1-n1cc(NC(=O)Nc2c(F)cccc2Cl)cn1` [Compound 27, 4-(4-(3-(2-chloro-6-fluorophenyl)ureido)-1H-pyrazol-1-yl)-5-methyl-N-(oxetan-3-yl)thiophene-2-carboxamide], for which the remaining activity at 10 µM in [1] (10 uM) worked out at 111%; in experiment [2] (10 uM), 88.8%; in experiment [3] (10 uM), 105%; in [4] (10 uM), 98.5%; in experiment [5] (10 uM), 99%; in experiment [6] (10 uM), 95%. The remaining activity at 10 µM in [7] (10 uM) was found to be 84.1%; in experiment [8] (10 uM) it was 87.8%; in experiment [9] (10 uM), 88.5%.
